The source made the active and inactive calls. The rule behind the calls is not given here.
Experiments:
[1] = target: T1, Nuclear factor erythroid 2-related factor 2 (Homo sapiens) (UniProt Q16236); test: Induction of NRF2-mediated ARE enhancer activity in hormone-refractory human PC3 cells transfected with pGL3-ARE-TK-luc at 5 uM after 24 hrs by luciferase assay relative to control; assay type: functional, cell-based; settings: PC-3
T1 sequence (whole entry): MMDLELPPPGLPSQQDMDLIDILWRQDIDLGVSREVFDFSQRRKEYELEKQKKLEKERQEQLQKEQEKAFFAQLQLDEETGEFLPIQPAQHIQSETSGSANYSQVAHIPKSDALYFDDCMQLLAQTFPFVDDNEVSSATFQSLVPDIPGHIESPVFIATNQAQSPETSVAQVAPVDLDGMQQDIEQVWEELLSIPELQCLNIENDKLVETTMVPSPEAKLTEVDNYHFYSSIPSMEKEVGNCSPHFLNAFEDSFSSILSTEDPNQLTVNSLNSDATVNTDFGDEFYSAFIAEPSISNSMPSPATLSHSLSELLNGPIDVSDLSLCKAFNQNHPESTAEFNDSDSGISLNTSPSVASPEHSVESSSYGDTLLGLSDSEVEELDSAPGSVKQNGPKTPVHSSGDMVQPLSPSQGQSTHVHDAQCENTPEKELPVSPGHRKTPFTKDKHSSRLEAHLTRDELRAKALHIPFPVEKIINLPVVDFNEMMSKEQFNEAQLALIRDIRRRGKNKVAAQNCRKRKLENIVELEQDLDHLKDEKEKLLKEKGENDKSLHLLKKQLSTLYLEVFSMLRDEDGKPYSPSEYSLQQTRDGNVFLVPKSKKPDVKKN

[2] = target: T1, Nuclear factor erythroid 2-related factor 2 (Homo sapiens); test: Induction of NRF2-mediated ARE enhancer activity in hormone-refractory human DU145 cells transfected with pGL3-ARE-TK-luc at 5 uM after 24 hrs by luciferase assay relative to control; assay type: functional, cell-based; settings: DU-145
[3] = tested on: LNCaP; test: Antioxidant activity in human LNCAP cells assessed as decrease in intracellular ROS level at 5 uM after 12 hrs by fluorescence microplate reader assay; assay type: functional, cell-based
[4] = target: T1, Nuclear factor erythroid 2-related factor 2 (Homo sapiens); test: Increase of NRF2-mediated NQO-1 expression in hormone-refractory human DU145 cells at 5 uM after 24 hrs by Western blotting; assay type: functional, cell-based; settings: DU-145
[5] = target: T1, Nuclear factor erythroid 2-related factor 2 (Homo sapiens); test: Increase of NRF2-mediated HO-1 expression in human LNCaP cells at 5 uM after 24 hrs by Western blotting; assay type: functional, cell-based
[6] = tested on: LNCaP; test: Induction of apoptosis in human LNCAP cells at 5 uM by Hoechst 33342 staining; assay type: functional, cell-based
[7] = target: T1, Nuclear factor erythroid 2-related factor 2 (Homo sapiens); test: Increase of NRF2-mediated NQO-1 expression in hormone-refractory human PC3 cells at 5 uM after 24 hrs by Western blotting; assay type: functional, cell-based; settings: PC-3
[8] = tested on: LNCaP; test: Antioxidant activity in human LNCAP cells assessed as decrease in intracellular ROS level at 5 uM after 5 mins by fluorescence microplate reader assay; assay type: functional, cell-based
[9] = tested on: LNCaP; test: Cytotoxicity against human LNCAP cells assessed as reduction of cells count at 5 uM after 24 to 48 hrs by trypan blue dye exclusion assay; assay type: functional, cell-based
[10] = target: T1, Nuclear factor erythroid 2-related factor 2 (Homo sapiens); test: Increase of NRF2-mediated HO-1 expression in hormone-refractory human MCF7 cells after 24 hrs by Western blotting; assay type: functional, cell-based
[11] = tested on: LNCaP; test: Decrease in cyclin B1 expression in human LNCAP cells at 5 uM after 48 hrs by Western blotting; assay type: functional, cell-based
[12] = target: T1, Nuclear factor erythroid 2-related factor 2 (Homo sapiens); test: Increase of NRF2-mediated HO-1 expression in human LNCaP cells at 5 uM by Western blotting; assay type: functional, cell-based; settings: TDE = time-dependent effect
[13] = target: T1, Nuclear factor erythroid 2-related factor 2 (Homo sapiens); test: Induction of nuclear translocation of NRF2 in human LNCaP cells at 5 uM after 6 hrs by Western blotting; assay type: functional, cell-based
[14] = target: RAC-alpha serine/threonine-protein kinase (Homo sapiens) (UniProt P31749); test: Effect on c-Akt phosphorylation in human LNCAP cells; assay type: cell-based
[15] = target: T1, Nuclear factor erythroid 2-related factor 2 (Homo sapiens); test: Increase of NRF2-mediated HO-1 expression in hormone-refractory human PC3 cells at 5 uM after 24 hrs by Western blotting; assay type: functional, cell-based; settings: PC-3
[16] = target: T1, Nuclear factor erythroid 2-related factor 2 (Homo sapiens); test: Induction of NRF2-mediated ARE enhancer activity in hormone-sensitive human LNCaP cells transfected with pGL3-ARE-TK-luc at 5 uM after 24 hrs by luciferase assay relative to control; assay type: functional, cell-based
[17] = target: MAP kinase p38 (Homo sapiens) (UniProt O15264+Q15759+Q16539+P53778); test: Effect on p38 phosphorylation in human LNCAP cells; assay type: cell-based
[18] = target: T1, Nuclear factor erythroid 2-related factor 2 (Homo sapiens); test: Increase of NRF2-mediated HO-1 expression in hormone-refractory human MDA-MB-231 cells after 24 hrs by Western blotting; assay type: functional, cell-based
[19] = tested on: LNCaP; test: Growth inhibition of human LNCAP cells transfected with HO-1 siRNA at 5 uM after 72 hrs by trypan blue dye exclusion assay; assay type: functional, cell-based
[20] = target: T1, Nuclear factor erythroid 2-related factor 2 (Homo sapiens); test: Increase of NRF2-mediated NQO-1 expression in human LNCaP cells at 5 uM after 24 hrs by Western blotting; assay type: functional, cell-based
[21] = tested on: LNCaP; test: Induction of NRF2 dominant-negative mutant-mediated ARE enhancer activity in human LNCaP cells transfected with pGL3-ARE-TK-luc at 5 uM after 24 hrs by luciferase assay relative to control; assay type: cell-based
[22] = tested on: LNCaP; test: Antioxidant activity in human LNCAP cells assessed as decrease in intracellular ROS level at 5 uM after 1 hr by fluorescence microplate reader assay; assay type: functional, cell-based
[23] = target: T1, Nuclear factor erythroid 2-related factor 2 (Homo sapiens); test: Increase of NRF2-mediated HO-1 expression in human LNCaP cells after 24 hrs by Western blotting; assay type: functional, cell-based
[24] = tested on: LNCaP; test: Effect on p21 expression in human LNCAP cells at 5 uM after 48 hrs by Western blotting; assay type: functional, cell-based
[25] = tested on: LNCaP; test: Growth inhibition of human LNCAP cells at 5 uM after 48 hrs by trypan blue dye exclusion assay in presence of 5 uM HO-1 inhibitor Zn-protoporphyrin; assay type: functional, cell-based
[26] = tested on: LNCaP; test: Induction of morphological changes in human LNCAP cells assessed as appearance of flattened and enlarged cells at 5 uM after 24 to 48 hrs; assay type: functional, cell-based
[27] = target: T1, Nuclear factor erythroid 2-related factor 2 (Homo sapiens); test: Increase of NRF2-mediated HO-1 expression in hormone-refractory human DU145 cells at 5 uM after 24 hrs by Western blotting; assay type: functional, cell-based; settings: DU-145
[28] = tested on: LNCaP; test: Effect on ERK phosphorylation in human LNCAP cells; assay type: cell-based
[29] = target: T1, Nuclear factor erythroid 2-related factor 2 (Homo sapiens); test: Induction of nuclear translocation of NRF2 in human LNCaP cells at 5 uM after 1 hr by Western blotting; assay type: functional, cell-based
[30] = target: c-Jun N-terminal kinase, JNK (Homo sapiens) (UniProt P45983+P53779+P45984); test: Effect on JNK phosphorylation in human LNCAP cells; assay type: cell-based
[31] = tested on: LNCaP; test: Decrease in cyclin D1 expression in human LNCAP cells at 5 uM after 48 hrs by Western blotting; assay type: functional, cell-based
[32] = target: T1, Nuclear factor erythroid 2-related factor 2 (Homo sapiens); test: Induction of nuclear translocation of NRF2 in human LNCaP cells at 5 uM after 0.5 hrs by Western blotting; assay type: functional, cell-based

Sequence of RAC-alpha serine/threonine-protein kinase (Homo sapiens) (P31749 whole entry): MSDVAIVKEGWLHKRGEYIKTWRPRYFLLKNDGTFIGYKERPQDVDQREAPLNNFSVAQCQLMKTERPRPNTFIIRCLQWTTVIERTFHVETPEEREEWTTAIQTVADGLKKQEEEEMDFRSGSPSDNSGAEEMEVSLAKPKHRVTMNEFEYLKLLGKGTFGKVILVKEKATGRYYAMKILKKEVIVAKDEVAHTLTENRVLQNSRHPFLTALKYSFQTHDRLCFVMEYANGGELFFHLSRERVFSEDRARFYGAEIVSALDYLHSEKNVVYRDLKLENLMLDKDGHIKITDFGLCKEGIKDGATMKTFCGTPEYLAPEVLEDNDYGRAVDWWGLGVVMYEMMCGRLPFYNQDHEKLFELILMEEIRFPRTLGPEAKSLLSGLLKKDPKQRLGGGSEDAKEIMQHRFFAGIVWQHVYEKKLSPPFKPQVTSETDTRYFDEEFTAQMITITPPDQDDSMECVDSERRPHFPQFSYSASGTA

| Structure (SMILES) | fold change (FC) [1] | fold change (FC) [2] | inhibition [3] | Activity [4] | Activity [5] | Activity [6] | Activity [7] | inhibition [8] | Activity [9] | Activity [10] | inhibition [11] | Activity [12] | Activity [13] | Activity [14] | Activity [15] | fold change (FC) [16] | Activity [17] | Activity [18] | growth inhibition (GI) [19] | Activity [20] | further results |
| --- | --- | --- | --- | --- | --- | --- | --- | --- | --- | --- | --- | --- | --- | --- | --- | --- | --- | --- | --- | --- | --- |
| C[C@@H](O[Si](C)(C)C(C)(C)C)[C@H]1C(=O)N2/C(=N/C3CCCCC3)[Se]/C(=C/I)C[C@H]12 | < 2 | < 2 | Active | Active | Active | inactive | Active | Active | Active | Active | Active | tde | Active | inactive | Active | 6 | inactive | Active | Active | Active | Activity [21]: inactive; inhibition [22]: Active; Activity [23]: Dose-dependent effect; Activity [24]: inactive; growth inhibition (GI) [25]: Active; Activity [26]: Active; Activity [27]: Active; Activity [28]: inactive; Activity [29]: Active; Activity [30]: inactive; inhibition [31]: Active |
| C[C@@H](O[Si](C)(C)C(C)(C)C)[C@H]1C(=O)N2/C(=N/Cc3ccccc3)[Se]/C(=C/I)C[C@H]12 | < 2 | < 2 | Active | Active | Active | inactive | Active | Active | Active | Active | Active | tde | Active | inactive | Active | 6 | inactive | Active | Active | Active | Activity [32]: Active; Activity [21]: inactive; inhibition [22]: Active; Activity [23]: Dose-dependent effect; Activity [24]: inactive; growth inhibition (GI) [25]: Active; Activity [26]: Active; Activity [27]: Active; Activity [28]: inactive; Activity [30]: inactive; inhibition [31]: Active |
| C[C@@H](O[Si](C)(C)C(C)(C)C)[C@H]1C(=O)N2/C(=N/c3ccc4ccccc4c3)[Se]/C(=C/I)C[C@H]12 |  |  |  |  |  |  |  |  |  |  |  |  |  |  |  |  |  |  |  |  | Activity [16]: Active |
| C[C@@H](O[Si](C)(C)C(C)(C)C)[C@H]1C(=O)N2/C(=N/c3ccccc3)[Se]/C(=C/I)C[C@H]12 |  |  |  |  |  |  |  |  |  |  |  |  |  |  |  |  |  |  |  |  | Activity [16]: Active |

Source: ChEMBL document CHEMBL1250530, “Identification of organoselenium compounds that possess chemopreventive properties in human prostate cancer LNCaP cells” (Bioorg Med Chem, 2010)
